Assay results from patent US20200397808A1, “TREATMENT OF STEROID-RESISTANT DISEASE USING AN ANTHOCYANIN AND A CORTICOSTEROID” (THE CLEVELAND CLINIC FOUNDATION, priority 2017, published 2020).

Legend:
[1] = biological target: T1, IL-17A and IL-17ARA (IL-17A receptor subunit) interaction (Homo sapiens, UniProt Q96F46); experiment: IL-17A binding to IL-17ARA inhibition; conditions: read-out: IC50, inhibitory activity for IL-17A binding to IL-17ARA
T1 sequence (Q96F46 33-320 limits assumed): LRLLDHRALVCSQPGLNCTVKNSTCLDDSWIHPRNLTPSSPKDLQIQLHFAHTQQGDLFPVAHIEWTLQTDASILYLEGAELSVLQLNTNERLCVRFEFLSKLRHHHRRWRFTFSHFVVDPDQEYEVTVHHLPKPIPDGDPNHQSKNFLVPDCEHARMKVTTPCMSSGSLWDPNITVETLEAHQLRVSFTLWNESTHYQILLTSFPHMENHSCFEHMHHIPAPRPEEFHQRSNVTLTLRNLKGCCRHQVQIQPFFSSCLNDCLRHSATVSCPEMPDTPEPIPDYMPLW

[2] = system: HDM-induced neutrophilic airway inflammation; experiment: HDM/CFA-induced acute neutrophilic steroid-resistant severe asthma model; type: in vivo, C57BL/6 mice; set-up: airway inflammation (BAL cell count, inflammatory gene expression in the lung): dose or concentration left out as unconfirmed
Description: FIGS. 1A and 1B provide graphs showing C3G attenuates neutrophilic airway inflammation in a HDM-induced acute asthma model. A. HDM/CFA-induced neutrophilic asthma in 8-week female C57BL/6 mice (n=8 per group). B. Shown are total and differential cell counts in BAL cell count. HDM, house dust mite. […] DEX and C3G were delivered to mice 24 h before HDM sensitization and 1 h before HDM challenge. Mice were sacrificed after HDM challenge. i.p., intraperitoneally; i.n. intranasally.
FIGS. 2A and 2B provide graphs showing Oral C3G attenuates neutrophilic airway inflammation in a HDM-induced acute asthma model. A. HDM/CFA-induced neutrophilic asthma in 8-week female C57BL/6 mice (n=5 per group). B. Shown are total and differential cell counts in BAL cell count. HDM, house dust mite. Treatment groups: Control (DMSO); Low DEX (0.3 mg/kg BW, i.p.); Low DEX+10 mg C3G (per mouse); Low DEX+20 mg C3G (per mouse); DEX and C3G were delivered to mice 24 h before HDM sensitization and 1 h before HDM challenge. Mice were sacrificed after HDM challenge.
C3G attenuates neutrophilic airway inflammation in a HDM-induced acute asthma model. House dust mite (HDM), a natural allergen to which asthmatics are often sensitized, can induce neutrophilic airway inflammation, which is often associated with steroid-resistant severe asthma. The inventors have established an HDM/CFA-induced neutrophilic severe asthma model. The ability of C3G in combination with low-dose DEX (low DEX) was evaluated in alleviating neutrophilic airway inflammation in a HDM-induced steroid-resistant severe asthma model. Eight-week WT C57BL/6 female mice were sensitized subcutaneously (s.c.) with HDM (100 μg per mouse) in Complete Freund's Adjuvant (CFA) on day 0 and subsequently challenged (i.n.) with HDM (100 μg per mouse) on day 14. BAL cell counting and tissue collection were performed after 24 h of last HDM challenge. […]

[3] = system: Th17-induced neutrophilic airway inflammation; experiment: Th17 cell-mediated neutrophilic asthma model; type: in vivo, C57BL/6 mice; conditions: C3G alone, 200 μg i.p./100 μg i.n per mouse
Description: FIGS. 3A and 3B provide graphs showing C3G attenuates neutrophilic airway inflammation in a Th17-induced asthma model. A. HDM/CFA-induced neutrophilic asthma in 8-week female C57BL/6 mice (n=5 per group). B. Shown are total and differential cell counts in BAL cell count. HDM, house dust mite. Treatment groups: Control (DMSO); Low DEX (0.3 mg/kg BW, i.p.); C3G (200 μg i.p./100 μg i.n per mouse); Low DEX/C3G. DEX and C3G were delivered to mice 1 h before HDM challenges. Mice were sacrificed after the last HDM challenge.
C3G attenuates neutrophilic airway inflammation in a Th17-induced asthma model. To further confirm the synergistic effect of DEX/C3G in IL-17A-driven asthma, the efficacy of C3G was tested in a TH17 cell-mediated neutrophilic asthma model (FIG. 3).

IC50 [1]: 6.88 µM
Structure (SMILES): OC[C@H]1O[C@@H](Oc2cc3c(O)cc(O)cc3[o+]c2-c2ccc(O)c(O)c2)[C@H](O)[C@@H](O)[C@@H]1O [C3G, Cyanidin-3-glucoside]
airway inflammation (BAL cell count, inflammatory gene expression in the lung) ([2]; C3G alone): reduced to some degree
airway inflammation (BAL cell count) ([2]; oral C3G 20 mg/mouse in the presence of low DEX, versus 10 mg/mouse): did not improve the efficacy further
airway inflammation (BAL cell count) ([2]; oral C3G by gavage 10 mg/mouse in the presence of low DEX): able to inhibit airway inflammation
neutrophilic airway inflammation (BAL cell count) [3]: alleviated the inflammation dramatically
